Experiments:
[1] = test system: damaged adult nigrostriatal tract; conditions: rat, cited from earlier work
[2] = Chondroitinase activity assay: cleavage of biotin-labelled CS in solution, intact substrate detected on protamine-coated microplate; conditions: 0.8-100 milliunits enzyme; biotin-CS 0.01 μg/ml; 37° C., 1 h; FIG. 3
Description: A solid phase, for example a microtiter plate, is coated with protamine by incubation of 100 μl/well of a 0.003% solution of protamine sulfate at 37° C. for 24 hours. Thereafter, plates were washed 3 times with A dest. and stored in the dark.
Plates were washed 3 times with buffer (PBS/0.01% Tween 20) and Avidin-POD (1 μg/ml in PBS/5% BSA) was added.
After 15 min plates were washed 5 times with PBS and 100 μl OPD-solution (0.667 mg/ml) was added.
After 15 min the reaction was stopped by addition of 100 μl of 0.5 Mol H2SO4. OD was measured at 490 nm using a microplate reader.
The enzyme reaction is carried out by mixing 50 μl of biotin-labelled CS at 0.01 μg/ml with increasing amounts of chondroitinase ABC, e.g. 0.8-100 nano-units of chondroitinase ABC. Samples were brought to a volume of 100 μl by addition of PBS.
This mixture is incubated at 37° C. for 1 h. Thereafter the enzyme was inactivated by heating at 100° C. for 10 min.
Samples (85 μl of the samples) were transferred to the CS-BP (protamine)-coated microplate and incubated for 1 hour at room temperature.
The enzyme reaction is carried out by mixing 50 μl of biotin-labelled CS at 0.01 μg/ml with increasing amounts of hyaluronidase, e.g. 0.8-100 milliunits of hyaluronidase. Samples were brought to a volume of 100 μl by addition of PBS.
This mixture is incubated at 37° C. for 1 h. […]

Substance	persistence of active enzyme in the injured CNS ([1]; in vivo)	axon regeneration ([1]; single dose injected adjacent to damaged nigrostriatal tract)	degradation of biotin-labelled chondroitin sulfate (decrease in signal, OD 490 nm) [2]
chondroitinase ABC	at least 10 days	promoted axon regeneration	
hyaluronidase			dose-dependent degradation

Reference: patent US20110189157A1, “USE OF HUMAN HYALURONIDASES FOR AXONAL REGROWTH” (priority 2008, published 2011)
